Experimental data reported in article PMC12459020, “Chemical Probes that Target a Dissociative LuxR-Type Quorum Sensing Receptor in Gram-Negative Bacteria” (ACS Chemical Biology, 2025).
Like-named read-outs stand apart in the source and are kept apart here.

Tests used:
[1] = tested on: P. stewartii ΔesaI (ESN51); assay: Mucoidy (exopolysaccharide) phenotypic assay on CPG agar; assay type: cell-based, Pantoea stewartii
Excerpt: In P. stewartii, EsaR regulates the production of the exopolysaccharide stewartan, which clogs the xylem of infected plants and leads to the wilt and lesions characteristic of Stewart’s wilt. EsaR binds directly to the rcsA promoter to repress transcription at low cell density, and when this repression is relieved at high cell density, RcsA contributes to activation of the cps gene cluster, which encodes the stewartan biosynthetic pathway. Exopolysaccharide production can be visualized by the growth of mucoid colonies on casamino acid-peptone-glucose (CPG) agar plates, and this phenotypic assay is commonly used to evaluate EsaR-mediated QS in P. stewartii. , To investigate the ability of the synthetic EsaR agonists uncovered here to regulate a QS-controlled phenotype in P. stewartii, selected compounds were tested for their ability to induce mucoidy in the P. stewartii (ΔesaI) strain, ESN51 (Figure ).
P. stewartii ΔesaI (ESN51) was grown on Casamino Peptone Glucose (CPG) agar (1 g/L casamino acids, 10 g/L peptone, 10 g/L glucose, 17 g/L agar) supplemented with a 1:1000 dilution of compound stocks or DMSO. Plates were incubated at 28 °C for 2 days without shaking before imaging with a smartphone camera (Apple iPhone X). Images are representative of at least two biological replicates.

[2] = tested on: ExpR1; settings: cited from earlier work; for ExpR1 antagonism: 5 µM compound against 5 µM OHHL, negative values indicate potential activators, ref 6 (SI; Palmer et al., 2011); for ExpR1 [%] (agonism, activation): compounds at 200 μM, cellulase activity in P. versatile AC5117, ref Palmer et al., 2011 (main ref 44, SI ref 6)
[3] = tested on: LuxR; settings: cited from earlier work; for LuxR antagonism: 5 µM compound against 5 µM OHHL, negative values indicate potential activators, ref 6 (SI; Palmer et al., 2011); for LuxR [%] (agonism, activation): compounds at 200 μM, luminescence in V. fischeri ES114 (ΔluxI), ref Palmer et al., 2011 (main ref 44, SI ref 6)
[4] = target: T1, EsaR (Pantoea stewartii subsp. stewartii, UniProt P54293); assay: cell-based; settings: for activation at 100 µM / inhibition at 100 µM: 3.5 h; for activation at 100 µM: read-out: EsaR-repressed (pesaR) [%] agonism; for inhibition at 100 µM: read-out: EsaR-repressed (pesaR) antagonism
T1 construct: expressed in transfected cells; host or cells: E. coli JLD271 (K12 ΔsdiA), arabinose-induced pJN105-esaR
T1 sequence (P54293 whole entry): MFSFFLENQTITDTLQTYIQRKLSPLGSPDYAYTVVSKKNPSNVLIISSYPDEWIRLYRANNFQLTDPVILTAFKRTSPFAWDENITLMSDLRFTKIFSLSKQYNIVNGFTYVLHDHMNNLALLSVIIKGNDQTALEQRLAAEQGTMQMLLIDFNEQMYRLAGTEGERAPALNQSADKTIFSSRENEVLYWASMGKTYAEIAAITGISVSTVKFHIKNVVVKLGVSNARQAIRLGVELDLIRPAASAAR
Excerpt: (§1) EsaR transcriptional activation and repression were examined using E. coli and P. stewartii reporters (strains and plasmids listed in Table S1; see Methods section for assay details). […] We constructed reporters in E. coli based on previously reported EsaR reporters (Table S1). Each strain contained an EsaR expression plasmid (pJN105-esaR) and a reporter plasmid with either an EsaR-activated promoter (pesaS) or an EsaR-repressed promoter (pesaR) upstream of luxABCDE or GFP.
(§2) Gibson assembly was used to create all constructs. Plasmid pJN105-esaR was created by amplifying esaR from pAC-esaR and inserting it into pJN105. pesaSlux was created by inserting pesaS, amplified from pPesaR-AC:gfp, into the pCS-pesaRlux backbone. The pesaR promoter was amplified from pCS-pesaRlux and inserted into the pPesaR-AC:gfp backbone to create pesaR:GFP. P. stewartii reporter strains were created by transforming pesaR:GFP or pPesaR-AC:gfp into ESN51 by conjugation using E. coli S17 λpir as the donor strain. See SI for details of E. coli ExpR2 reporter construction.
(§3) Overnight cultures were diluted 1:10 in LB medium with appropriate antibiotics and grown at 37 °C (200 rpm) to an OD600 of 0.22–0.27 before induction with 4 mg mL^–1 arabinose. OD600 was measured by placing 200 μL of culture into a 96-well plate and reading optical density using the BioTek Synergy 2 plate reader. Assays were performed in technical triplicate in clear-bottom, white and clear-bottom, black 96-well microtiter plates (Corning Costar 3903 and 3904) for luminescence and fluorescence reporters, respectively. Compounds were dissolved in DMSO, and 2 μL of this stock, or DMSO as a negative control, was added to each well prior to adding 198 μL of induced culture. Plates were incubated at 37 °C (200 rpm) for 3.5 h. Each well was mixed by pipetting before reading OD600 and either luminescence or fluorescence. Single-point screens were performed with one or two biological replicates, and all dose–response curves were performed in biological triplicate. EC50 values were calculated based on a nonlinear regression of log(concentration) vs response (three parameters) using GraphPad Prism 9 software.

[5] = target: T1, EsaR; assay: cell-based; settings: for activation at 100 µM / inhibition at 100 µM: 3.5 h; for activation at 100 µM: read-out: EsaR-activated (pesaS) [%] agonism; for inhibition at 100 µM: read-out: EsaR-activated (pesaS) antagonism; for EsaR agonism, in words: E. coli EsaR reporters, primary screen at 100 μM
Excerpt: as §1, §2, §3

[6] = tested on: ExpR2; settings: cited from earlier work; for ExpR2 antagonism (percent inhibition): 5 µM compound against 5 µM OHHL, negative values indicate potential activators; for ExpR2 antagonism (percent inhibition) / IC50 / EC50: ref 6 (SI; Palmer et al., 2011); for ExpR2 [%] (agonism, percent activation): compounds at 200 μM, cellulase activity in P. versatile AC5099, ref Palmer et al., 2011 (main ref 44, SI ref 6); for IC50 / EC50: previously reported phenotypic reporter data
[7] = target: ExpR2 (Pectobacterium versatile, UniProt Q1A4U9); assay: E. coli GFP reporter with ExpR2-activated promoter (prsmA); assay type: cell-based, Pectobacterium versatile Ecc71
Chain of ExpR2 (Pectobacterium versatile, UniProt Q1A4U9) (Q1A4U9 entry or part of it): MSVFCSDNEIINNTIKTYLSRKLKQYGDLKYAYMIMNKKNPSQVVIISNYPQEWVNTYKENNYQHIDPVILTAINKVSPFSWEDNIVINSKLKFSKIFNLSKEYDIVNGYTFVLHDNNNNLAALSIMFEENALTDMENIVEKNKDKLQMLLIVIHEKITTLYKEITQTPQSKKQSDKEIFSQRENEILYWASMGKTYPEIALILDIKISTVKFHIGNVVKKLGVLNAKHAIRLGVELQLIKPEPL
Excerpt: One difference between our prior study in ExpR1/2 and that reported here in EsaR is that the former relied on QS-controlled phenotypes in P. versatile Ecc71 (i.e., cellulase and pectate lyase activity) to measure compound activity, unlike the heterologous transcriptional reporters used for EsaR. To further investigate the differences in antagonism assay data observed between EsaR and ExpR1/2, an E. coli reporter was created with an ExpR2 protein production plasmid (pJN105-expR2) and a reporter plasmid with an ExpR2-activated promoter (prsmA) controlling GFP (see Methods section). […] We return to possible explanations for the differences observed between the ExpR2 phenotypic assays and transcriptional reporters below.
Supporting Information — Stoutland et al.
Additional experimental methods.
Plasmid and reporter strain construction for ExpR2 reporters
Gibson assembly was used to create all constructs. Strains, plasmids and primers are listed in Ta b l es S1 and S2. Plasmid pJN105-expR2 was created by amplifying expR2 from Pectobacterium versatile Ecc71 genomic DNA and inserting it into pJN105, amplified from pJN105-esaR. […] E. coli reporter strains were created by transforming pJN105-expR2 and prsmA:GFP into electrocompetent E. coli JLD271.
E. coli ExpR2 reporter assay
Single colonies of the reporter strain were used to inoculate LB medium supplemented with appropriate antibiotics, and these cultures were grown overnight at 37 °C with shaking at 200 rpm.
Overnight cultures were diluted 1:10 in LB medium with appropriate antibiotics and grown at 37 °C to an OD600 of 0.22–0.27 before induction with 0.4 mg/mL arabinose. Arabinose concentration was optimized to maximize dynamic range of reporter data. Compounds were dissolved in DMSO, and 2 µL of this stock, or DMSO as a negative control, was added to each well of a clear-bottom, black 96-well plate prior to adding 198 µL of induced culture. Plates were incubated at 37 °C with shaking at 200 rpm for 3.5 hr. Assays were performed in technical and biological triplicate. Each well was mixed by pipetting before reading fluorescence and OD600. EC50 values were calculated based on a nonlinear regression of log(concentration) vs. response - variable slope (four parameters) using GraphPad Prism 9 software.

[8] = concentration not given, CPG agar, ESN51
[9] = 10 μM in CPG agar, ESN51, 2 days at 28 °C
[10] = 100 μM in CPG agar, ESN51, 2 days at 28 °C

SMILES: CCCCCCS(=O)(=O)N[C@H]1CCOC1=O [A11]
- induction of mucoidy [1, 8]: did not induce mucoidy

SMILES: O=C(CCc1ccc(Br)cc1)N[C@H]1CCOC1=O [B7, 4-Br phenylpropanoyl HL]
- ExpR1 antagonism [2]: 78%
- ExpR1 [%] (agonism, activation) [2]: 3%
- LuxR antagonism [3]: 80%
- LuxR [%] (agonism, activation) [3]: 2%
- activation at 100 µM [4]: 66%
- inhibition at 100 µM [4]: -36%
- activation at 100 µM [5]: 56%
- inhibition at 100 µM [5]: -50%
- EsaR agonism, in words [5]: agonized EsaR
- ExpR2 antagonism (percent inhibition) [6]: 66%
- ExpR2 [%] (agonism, percent activation) [6]: 8%
- IC50 [6]: 2.75 µM
- ExpR2 agonism, in words ([7]; E. coli ExpR2 GFP reporter): behaved as an agonist

SMILES: O=C(Cc1cccc([N+](=O)[O-])c1)N[C@H]1CCOC1=O [C14, 3-NO2 PHL]
- ExpR1 antagonism [2]: -15%
- ExpR1 [%] (agonism, activation) [2]: 115%
- LuxR antagonism [3]: -18%
- LuxR [%] (agonism, activation) [3]: 130%
- EC50 [4]: ≥ 98 µM
- activation at 100 µM [4]: 22%
- inhibition at 100 µM [4]: -3%
- EC50 [5]: ≥ 68 µM
- activation at 100 µM [5]: 62%
- inhibition at 100 µM [5]: -56%
- EsaR agonism, in words [5]: moderate activator
- ExpR2 antagonism (percent inhibition) [6]: -4%
- ExpR2 [%] (agonism, percent activation) [6]: 103%
- EC50 [6]: 0.5 µM
- EC50 [7]: 0.16 µM
- ExpR2 agonism, in words ([7]; E. coli ExpR2 GFP reporter): acted as agonists
- fold less potent than OHHL in ExpR2 E. coli reporter ([7]; E. coli ExpR2 GFP reporter): approximately 40 fold

SMILES: O=C1OCC[C@@H]1NS(=O)(=O)c1cccc(Cl)c1 [GAF 28]
- induction of mucoidy [1, 9]: induced mucoidy
- EC50 [4]: 2.2 µM
- EC50 [5]: 2.2 µM

SMILES: O=C1OCC[C@H]1NS(=O)(=O)c1ccc(Cl)c(Cl)c1 [GAF 55]
- induction of mucoidy [1, 8]: did not induce mucoidy
- EsaR agonism at 100 μM (bound stated in text) ([5]; 100 μM, E. coli EsaR reporter): less than 50%

SMILES: O=C1OCC[C@@H]1NS(=O)(=O)c1ccccc1 [GAF 57]
- induction of mucoidy [1, 9]: not at 10 μM
- induction of mucoidy [1, 10]: induced mucoidy

SMILES: CCCCCC(O)CC(=O)N[C@H]1CCOC1=O (stereo partly shown) [H2]
- induction of mucoidy [1, 9]: not at 10 μM
- induction of mucoidy [1, 10]: induced mucoidy
- fold less potent than OOHL in EsaR ([5]; E. coli EsaR reporter EC50 values): ~20 fold

SMILES: CCCC(=O)CC(=O)N[C@H]1CCOC1=O [OHHL, 3-oxo-hexanoyl HL, reference compound]
- ExpR1 antagonism [2]: 0%
- ExpR1 [%] (agonism, activation) [2]: 100%
- induction of mucoidy [1, 9]: smooth
- LuxR antagonism [3]: 0%
- LuxR [%] (agonism, activation) [3]: 100%
- activation at 100 µM [4]: 100%
- inhibition at 100 µM [4]: 0%
- activation at 100 µM [5]: 100%
- inhibition at 100 µM [5]: 0%
- ExpR2 antagonism (percent inhibition) [6]: 0%
- ExpR2 [%] (agonism, percent activation) [6]: 100%
- EC50 [6]: 2 µM
- EC50 [7]: 0.0039 µM
- ExpR2 agonism, in words ([7]; E. coli ExpR2 GFP reporter): acted as agonists

SMILES: CCCCCCCCCC(=O)CC(=O)N[C@H]1CCOC1=O [OdDHL, 3-(oxo)-dodecanoyl HL, reference compound]
- ExpR1 antagonism [2]: 85%
- ExpR1 [%] (agonism, activation) [2]: 2%
- LuxR antagonism [3]: 86%
- LuxR [%] (agonism, activation) [3]: 2%
- activation at 100 µM [4]: 26%
- inhibition at 100 µM [4]: -10%
- activation at 100 µM [5]: 34%
- inhibition at 100 µM [5]: -45%
- EsaR agonism, in words [5]: agonized EsaR
- ExpR2 antagonism (percent inhibition) [6]: 73%
- ExpR2 [%] (agonism, percent activation) [6]: 17%
- IC50 [6]: 0.75 µM

SMILES: CCCCCCCCCCCC(=O)CC(=O)N[C@H]1CCOC1=O [OtDHL, reference compound]
- ExpR1 antagonism [2]: 4%
- ExpR1 [%] (agonism, activation) [2]: 1%
- LuxR antagonism [3]: 5%
- LuxR [%] (agonism, activation) [3]: 4%
- activation at 100 µM [4]: 13%
- inhibition at 100 µM [4]: -53%
- activation at 100 µM [5]: 16%
- inhibition at 100 µM [5]: -41%
- ExpR2 antagonism (percent inhibition) [6]: 7%
- ExpR2 [%] (agonism, percent activation) [6]: 9%

SMILES: CCCCCCCCCCCC(=O)N[C@H]1CCOC1=O [dDHL, reference compound]
- ExpR1 antagonism [2]: 77%
- ExpR1 [%] (agonism, activation) [2]: 0%
- LuxR antagonism [3]: 73%
- LuxR [%] (agonism, activation) [3]: 1%
- activation at 100 µM [4]: 35%
- inhibition at 100 µM [4]: -27%
- activation at 100 µM [5]: 45%
- inhibition at 100 µM [5]: -63%
- ExpR2 antagonism (percent inhibition) [6]: 62%
- ExpR2 [%] (agonism, percent activation) [6]: 31%

SMILES: CCCCCCCCCCCCCCCC(=O)N[C@H]1CCOC1=O [hDHL, reference compound]
- ExpR1 antagonism [2]: 4%
- ExpR1 [%] (agonism, activation) [2]: 0%
- LuxR antagonism [3]: 27%
- LuxR [%] (agonism, activation) [3]: 2%
- activation at 100 µM [4]: 22%
- inhibition at 100 µM [4]: -71%
- activation at 100 µM [5]: 25%
- inhibition at 100 µM [5]: -11%
- ExpR2 antagonism (percent inhibition) [6]: 7%
- ExpR2 [%] (agonism, percent activation) [6]: 11%
